≈ marks a conversion by molar mass, not a printed value. Where two headings read alike, the source gives them in different places. Blank lines part the entries; values can stand above or below the compound they belong to.
What was measured:
[1] = In vitro pH of compositions prepared with organic acids (Table 1); format: physicochemical; conditions: composition prepared with the organic acid
Procedure: Compositions were prepared with the following organic acids listed in Table 1, and pH values were measured.

[2] = cited from earlier work; for Water Solubility: intrinsic water solubility of the acid used in Example 5
[3] = cited from earlier work
[4] = cited from earlier work; remark: listed apart in the source
[5] = pH of a saturated aqueous solution of the acid; format: physicochemical; conditions: excluding the drug
Procedure: The rates of in vitro release of the risperidone salts listed in Example 5 are also related in part to the pH of a saturated aqueous solution of the acid. The pH at saturating concentrations of the acids used in Example 5 and their respective risperidone release rates (expressed as the cumulative percent total risperidone released following 15 days incubation at 37° C.) are shown in FIG. 7.

[6] = in vitro, after 28 days, PBS 37° C.

SMILES: O=C(O)C=Cc1ccc(Cl)cc1 [4-Chlorocinnamic]
In vitro pH [1]: 6.34
pKa ([3]; organic acid, Table 1): 4.41

SMILES: O=C1CC2(CCCC2)CC(=O)N1CCCCN1CCN(c2ncccn2)CC1 [Buspirone]
room temperature water solubility ([4]; room temperature): about 21 mg/L

SMILES: CN(C)CCC[C@@]1(c2ccc(F)cc2)OCc2cc(C#N)ccc21 [Escitalopram]
water solubility (in words) [4]: practically insoluble in water

SMILES: CCN(C)C(=O)Oc1cccc([C@H](C)N(C)C)c1 [Rivastigmine]
water solubility (in words) [4]: poorly water soluble

SMILES: CCCN(CCc1cccs1)[C@H]1CCc2c(O)cccc2C1 [Rotigotine]
water solubility (in words) [4]: practically insoluble in water

SMILES: O=C(O)CCCCCCCCC(=O)O [Sebacic, sebacic acid]
pKa ([3]; organic acid, Table 1): 4.72

SMILES: O=c1[nH]c(=O)c2[nH]c(=O)[nH]c2[nH]1 [Uric acid]
Water Solubility [2]: 0.06 mg/mL

SMILES: Cc1cc2c(s1)Nc1ccccc1N=C2N1CCN(C)CC1 [olanzapine, reference compound]
water solubility (in words) [4]: poorly water soluble
pKa1 ([3]; reported value, doubly protonated olanzapine): 5.0

SMILES: Cc1nccn1CC1CCc2c(c3ccccc3n2C)C1=O (stereo not drawn) [ondansetron]
water solubility (in words) [4]: limited water solubility

SMILES: COc1ccc(C=CC(=O)O)cc1 [p-Methoxycinnamic, p-methoxycinnamic acid]
In vitro pH [1]: 5.37
Solubility ([2]; organic acid, Table 1): 0.712 mg/mL (≈ 4 mM)
pKa ([3]; organic acid, Table 1): 4.04

SMILES: Cc1nc2n(c(=O)c1CCN1CCC(c3noc4cc(F)ccc34)CC1)CCCC2 [risperidone]
insolubility in water as a neutral free base ([4]; 20-25° C.): > 10000 volumes of water per volume of drug

SMILES: Clc1ccc2nsnc2c1NC1=NCCN1 [tizanidine free base, tizanidine]
percent of the drug released [6]: approximately 10%

SMILES: CCCc1nc(C)c2c(=O)[nH]c(-c3cc(S(=O)(=O)N4CCN(CC)CC4)ccc3OCC)nn12 [vardenafil]
water solubility (in words) [4]: limited water solubility

The next lines start with results.

In vitro pH [1]: 2.42
SMILES: O=C(O)C(O)c1ccccc1 (racemic) [rac-Mandelic]
Solubility ([2]; organic acid, Table 1): 158.7 mg/mL (≈ 1040 mM)
pKa ([3]; organic acid, Table 1): 3.85

In vitro pH [1]: 6.13
SMILES: Cc1ccc(C=CC(=O)O)cc1 [4-Methylcinnamic]

pH at a saturating concentration [5]: 2.6
SMILES: O=C(O)CNC(=O)c1ccccc1 [Hippuric acid]

pH at a saturating concentration [5]: 3.0
SMILES: O=C(O)CCc1ccc(O)cc1 [Hydroxyphenylpropionic acid, 3-(4-hydroxyphenyl)propionic acid]
Water Solubility [2]: 2.76 mg/mL

In vitro pH [1]: 3.68
SMILES: O=C(O)c1cccnc1 [Nicotinic, nicotinic acid]

In vitro pH [1]: 4.21
SMILES: Nc1ccc(C(=O)O)cc1 [PABA, p-aminobenzoic acid]
pKa ([3]; organic acid, Table 1): 4.65

In vitro pH [1]: 3.95
SMILES: O=C(O)/C=C/c1cccc(O)c1 [m-Coumaric, m-coumaric acid]
Solubility [2]: 1.04 mg/mL (≈ 6.34 mM)
pKa [3]: 4.01

In vitro pH [1]: 4.49
SMILES: COc1cccc(C=CC(=O)O)c1 [m-Methoxycinnamic, m-methoxycinnamic acid]
Solubility ([2]; organic acid, Table 1): 4.46 mg/mL (≈ 25 mM)
pKa ([3]; organic acid, Table 1): 4.47

In vitro pH [1]: 5.05
SMILES: COc1ccc(C(=O)O)cc1 [p-Anisic, p-anisic acid]
Solubility ([2]; organic acid, Table 1): 0.4 mg/mL (≈ 2.63 mM)
pKa ([3]; organic acid, Table 1): 4.34

In vitro pH [1]: 4.36
SMILES: O=C(O)/C=C/c1ccc(O)cc1 [p-Coumaric, p-coumaric acid]
Solubility ([2]; organic acid, Table 1): 1 to 10 mg/mL

In vitro pH [1]: 4.35
SMILES: O=C(O)/C=C/c1ccccc1 [trans-Cinnamic, trans-cinnamic acid]
